# Assay results reported in patent US20250296960A1, “PEPTIDE COMPOSITIONS AND METHODS OF USE THEREOF” (priority 2022, published 2025).
# Numbered stars: 1 amine (or outer) side, 2 acyl side, 3 side chain; on linkers, the order of the positions; unused ones are H or OH. Square brackets hold non-standard residues; d marks the D form. Side chains are listed from the residue outwards. Peptide text beside a SMILES is read from it. * marks the point of attachment. Biotin = O=C1N[C@H]2[C@H](CS[C@H]2CCCCC(=O)*)N1; C18 diacid = O=C(O)CCCCCCCCCCCCCCCCC(=O)*; γGlu = O=C(O)[C@H](CCC(=O)[*:2])N[*:1]; AEEA = NCCOCCOCC(=O)O; Aib = CC(C)(N)C(=O)O
# Test: Intestinal absorption / PK after intraduodenal administration of oral formulation in rats, serum LC-MS/MS
# Settings: rat, in vivo, rats, single intraduodenal administration, 300 nmol/kg, oral formulation suspension, serum, mean ± SD
# Protocol: This study was conducted to evaluate the intestinal absorption of peptides following enteral administration of oral pharmaceutical formulations. The pharmaceutical formulation was administered in a form of suspensions by intraduodenal (ID) injection in rats. SEQ ID_87, 89 and 90 was accurately weighed and dissolved in 10 mM PBS containing polysorbate 80 (pH 7.4, vehicle I). The mixture was vortexed for 5 min to get a clear solution. Then, 2.5 mL of vehicle was added to the mixture and vortexed for 30 min to get homogenous opaque suspension. The composition of Vehicle II was sodium chenodeoxycholate, and propyl gallate in polysorbate 80 in PBS. The animals were not fasted prior to dosing. 0.2˜ 0.4 mL of whole blood was taken from vein at each time point (0, 0.167, 0.5, 1, 2, 4, 8, 24, and 48 hrs after IV or ID administration). The collected whole blood was incubated at room temperature for 20 min and tubes were centrifugated at 13,000 rpm for 10 min at 4° C. The resulting serum 0.1˜ 0.2 mL was transferred into the tube and stored at −70° C. until analysis. The concentrations of peptides in serum were determined by LC-MS/MS analysis. PK parameters were analyzed by non-compartmental analysis using Phoenix WinNonlin 5.0.1. software (Pharsight Corporation, Mountain View, CA, USA).
structure (smiles),measurement,setting,value
CSCC[C@H](NC(=O)[C@H](Cc1ccc(O)cc1)NC(=O)[C@H](CC(=O)O)NC(=O)[C@H](CC(C)C)NC(=O)[C@H](CC(C)C)NC(=O)[C@H](CCCCNC(=O)COCCOCCNC(=O)COCCOCCNC(=O)CC[C@H](NC(=O)CCCCCCCCCCCCCCCCC(=O)O)C(=O)O)NC(=O)[C@H](CO)NC(=O)[C@H](Cc1ccc(O)cc1)NC(=O)[C@H](CC(=O)O)NC(=O)[C@H](CO)NC(=O)[C@@H](NC(=O)[C@H](Cc1ccccc1)NC(=O)[C@@H](NC(=O)CNC(=O)[C@H](CCC(N)=O)NC(=O)C(C)(C)NC(=O)[C@@H](N)Cc1ccc(O)cc1)[C@@H](C)O)[C@@H](C)O)C(=O)N[C@@H](CCSC)C(=O)N[C@@H](CCC(N)=O)C(=O)N[C@@H](CCCNC(=N)N)C(=O)N[C@@H](CC(=O)O)C(=O)N[C@@H](Cc1ccccc1)C(=O)N[C@H](C(=O)N[C@@H](CCCCNC(=O)CCCC[C@@H]1SC[C@@H]2NC(=O)N[C@@H]21)C(=O)N[C@@H](Cc1c[nH]c2ccccc12)C(=O)N[C@@H](CC(C)C)C(=O)N[C@@H](CC(C)C)C(=O)N[C@@H](CCC(=O)O)C(=O)NCC(=O)NCC(=O)N1CCC[C@H]1C(=O)N[C@@H](CO)C(=O)N[C@@H](CO)C(=O)NCC(=O)N[C@@H](C)C(=O)N1CCC[C@H]1C(=O)N1CCC[C@H]1C(=O)N1CCC[C@H]1C(=O)N[C@@H](CO)C(N)=O)C(C)C [SEQ ID_89] (H-Y[Aib]QGTFTSDYSK([AEEA-AEEA-γGlu-C18 diacid])LLDYMMQRDFVK(Biotin)WLLEGGPSSGAPPPS-NH2; N-terminus and C-terminus assumed),AUC(0-inf),read-out: AUCinf,2.79 µg·h/mL
same,Cmax,read-out: Cmax,0.332 ± 0.124 µg/mL
same,MRT inf,read-out: MRTinf,9.89 ± 3.91 h
same,Tmax,read-out: Tmax,0.43 ± 0.15 h
same,half-life,read-out: t1/2 (converted),7.24 ± 2.05 h
